The source of these data is patent publication US6767708B1, “Stabilized aqueous steroid immunoassay standards” (Abbott Laboratories, priority 1994, dated 2004).

Molecules are shown by their SMILES.

The data set in a line: Stability of progesterone in charcoal stripped human serum stressed at 37° C. (percent loss by IMx Progesterone immunoassay). It counts as physicochemical. As to conditions: for Reduction in % loss of progesterone over time by addition of chelator compared to no added reagent: days 0, 3, 8, 15 and 29, FIG. 1; for Percent loss of progesterone: 5 ng/mL progesterone in charcoal stripped human serum, after 29 days, relative to frozen aliquot.

Experimental: Fifteen microliters (15 μL) of a serum sample were mixed with 80 μL of progesterone sample buffer, 80 μL of an anti-progesterone antibody coated microparticle suspension and 75 μL of IMx® Buffer. The reaction mixture was incubated for 20.8 minutes at 37° C. Progesterone sample buffer was an aqueous pH 2.8 solution of 2.25 M glycine, 0.5 μg/mL of 5-∝-dihydrotestosterone, 0.2% (w/v) saponin, 0.1 M sodium chloride and 0.1% methyl isothiazolinone (available from Rohm and Haas, Philadelphia, Pa.). The anti-progesterone antibody (available from University of Surry, Australia) coated microparticle suspension contained 0.001% solids (microparticles available from Seradyne, Indianapolis, Ind.) suspended in a buffer that was a pH 6.5 aqueous solution of 0.5 M morpholinoethanesulphonic acid (MES), 0.1 M sodium chloride, 10% sucrose, 2% bovine serum albumin (available from Intergen, Hawthorne, N.Y.), 0.1 mg/mL sheep IgG (50% ammonium sulfate cut of sheep serum obtained from Irvine Scientific, Santa Ana, Calif.) and 0.2% sodium azide.
One hundred seventy five microliters (175 μL) of the reaction mixture were transferred to the fiber matrix of an IMx® disposable cartridge. The microparticles were then washed with IMx® Buffer. Sixty microliters (60 μL) of 17-hydroxyprogesterone-3-(O-carboxymethyl)oxime alkaline phosphatase conjugate solution were added to the matrix, the reaction was incubated for 8 seconds at 37° C., and then washed again with IMx® Buffer. The conjugate solution contained 17-hydroxyprogesterone (available from Steraloids, Wilton, N.H.) coupled to alkaline phosphatase (available from Boehringer Mannheim, Germany) by means of the EDAC coupling procedure as described in U.S. Pat. No. 5,342,760. The conjugate solution was a pH 7.4 aqueous solution of 50 mM tris, 100 mM sodium chloride, 10 mM magnesium chloride, 0.1 mM zinc chloride, 0.5% casein (available from Sigma Chemical, St. Louis, Mo.) and 0.1% sodium azide containing sufficient conjugate to give a certain signal strength when utilized in an assay of sample free of analyte.
The addition of 4-methylumbelliferone phosphate and quantification of the rate of 4 methylumbelliferone formation was as described in Example 1. Using calibrators containing 0, 1, 4, 10, 20, and 40ng/mL of progesterone a standard curve was constructed.
Test samples were incubated at 37° C. and observed over a period of days or weeks.
Charcoal stripped human serum as prepared in Example 3 (non-alkaline shocked) (10 mL) was aliquoted into glass scintillation vials and various metal chelators were added to the following final concentrations:
Samples were incubated on a rocker for 12 min. at room temperature and then spiked to 5 ng/mL with 10 μg/mL progesterone (available from Sigma Chemical, Saint Louis, Mo.) prepared in an ethanol stock solution. Samples were assayed for baseline concentrations of progesterone following an 8 min. incubation on a rocker at room temperature. Four 1.0 mL aliquots of each composition were placed in TDx® microcentrifuge tubes (available from Abbott Laboratories, Abbott Park, Ill.) and stored frozen −20° C. The scintillation vials were incubated at 37° C. On the days indicated, aliquots were thawed and tested with the corresponding aliquots drawn from the vials stored at 37° C. to assess percent loss.
Percent loss (% loss) is an absolute determination of the loss of progesterone in the stressed sample relative to the frozen aliquot. […]

Take `O=C(O)CN(CCN(CC(=O)O)CC(=O)O)CCN(CC(=O)O)CC(=O)O` [DETP, diethylenetriaminepentaacetic acid]: for the setting “10 mM DETP, charcoal stripped human serum”, the “Reduction in % loss of progesterone (ranking of chelators)” value was “most effective”. Also, for the setting “charcoal stripped human serum”, the “Reduction in % loss of progesterone over time by addition of chelator compared to no added reagent” value is listed as “reduction in % loss”.

On to `O=C(O)CN(CCN(CC(=O)O)CC(=O)O)CC(=O)O` [EDTA, ethylenediaminetetraacetic acid], for which the “Reduction in % loss of progesterone over time by addition of chelator compared to no added reagent” value (charcoal stripped human serum) is listed as “reduction in % loss”.

On to `CC(=O)[C@H]1CC[C@H]2[C@@H]3CCC4=CC(=O)CC[C@]4(C)[C@H]3CC[C@]12C` [progesterone], for which the “Percent loss of progesterone” value (10 mM DETP) is on record as “eliminated” and the “Percent loss of progesterone” value (no reagent added) was roughly 80%.
